Source: patent US12030896B2, “PIKfyve inhibitors” (Mayo Foundation for Medical Education and Research, priority 2018, dated 2024)

System: U251
Assay: U251 Vacuolization Assay (24h)
Type: cell-based
Conditions: Homo sapiens, U-251
Method: As used herein the term “EC50 (μM)” refers to the μM concentration of a compound that is required for 50% activity in a vacuolization assay.
Example A—U251 Vacuolization Assay Data (24h) for Compounds of Examples 8-56

Compound	EC50 [µM]
Cc1ccc(Nc2nc(N/N=C/c3c[nH]c4ccccc34)nc(N3CCC3)n2)cc1 [Example 36, (E)-4-(2-((1H-Indol-3-yl)methylene)hydrazinyl)-6-(azetidin-1-yl)-N-(p-tolyl)-1,3,5-triazin-2-amine]	> 50
Cc1ccc(Nc2nc(N/N=C\c3csc4ccccc34)nc(N3CCOCC3)n2)cc1 [Example 31, [4-(N′-Benzo[b]thiophen-3-ylmethylene-hydrazino)-6-morpholin-4-yl-[1,3,5]triazin-2-yl]-p-tolyl-amine]	1 to 10
Cc1ccc(Nc2nc(N/N=C/c3ccncc3)nc(N3CCOCC3)n2)cc1 [Example 32, [4-Morpholin-4-yl-6-(N′-pyridin-4-ylmethylene-hydrazino)-[1,3,5]triazin-2-yl]-p-tolyl-amine]	1 to 10
O=[N+]([O-])c1ccc(Nc2nc(N/N=C/c3c[nH]c4ccccc34)nc(N3CCOCC3)n2)cc1 [Example 26, (E)-4-(2-((1H-indol-3-yl)methylene)hydrazinyl)-6-morpholino-N-(4-nitrophenyl)-1,3,5-triazin-2-amine]	≤ 1
Cc1ccc(Nc2nc(N/N=C/c3c[nH]c4ccccc34)nc(N3CCCCC3)n2)cc1 [Example 15, {4-[N′-(1H-Indol-3-ylmethylene)-hydrazino]-6-piperidin-1-yl-[1,3,5]triazin-2-yl}-p-tolyl-amine]	> 50
Cc1ccc(Nc2nc(N/N=C/c3c[nH]c4ccccc34)nc(N3CCSCC3)n2)cc1 [Example 38, (E)-4-(2-((1H-Indol-3-yl)methylene)hydrazinyl)-6-thiomorpholino-N-(p-tolyl)-1,3,5-triazin-2-amine]	> 50
Cc1ccc(Nc2nc(N/N=C/c3ccccc3)nc(N3CCOCC3)n2)cc1 [Example 33, [4-(N′-Benzylidene-hydrazino)-6-morpholin-4-yl-[1,3,5]triazin-2-yl]-p-tolyl-amine]	≤ 1
CN(C)c1ccc(Nc2nc(N/N=C/c3c[nH]c4ccccc34)nc(N3CCOCC3)n2)cc1 [Example 34, (E)-N1-(4-(2-((1H-indol-3-yl)methylene)hydrazinyl)-6-morpholino-1,3,5-triazin-2-yl)-N4,N4-dimethylbenzene-1,4-diamine]	≤ 1
Cc1ccc(Nc2cc(N3CCOCC3)nc(N/N=C/c3c[nH]c4ccccc34)n2)cc1 [Example 41, {2-[N′-(1H-indol-3-ylmethylene)-hydrazino]-6-morpholin-4-yl-pyrimidin-4-yl}-p-tolyl-amine]	1 to 10
Cc1[nH]c2ccccc2c1/C=N/Nc1nc(Nc2ccc([N+](=O)[O-])cc2)nc(N2CCCCCC2)n1 [Example 56, (E)-4-(azepan-1-yl)-6-(2-((2-methyl-1H-indol-3-yl)methylene)hydrazinyl)-N-(4-nitrophenyl)-1,3,5-triazin-2-amine]	> 50
Cc1ccc(Nc2nc(N/N=C/c3c[nH]c4ccccc34)nc(N3C4CCC3COC4)n2)cc1 [Example 52, (E)-4-(2-((1H-Indol-3-yl)methylene)hydrazinyl)-6-(3-oxa-8-azabicyclo[3.2.1]octan-8-yl)-N-(p-tolyl)-1,3,5-triazin-2-amine]	1 to 10
CS(=O)(=O)Nc1ccc(Nc2nc(N/N=C/c3c[nH]c4ccccc34)nc(N3CCOCC3)n2)cc1 [Example 46, (E)-N-(4-((4-(2-((1H-indol-3-yl)methylene)hydrazinyl)-6-morpholino-1,3,5-triazin-2-yl)amino)phenyl)methanesulfonamide]	≤ 1
FC(F)(F)c1ccc(Nc2nc(N/N=C/c3c[nH]c4ccccc34)nc(N3CCOCC3)n2)cc1 [Example 20, (E)-4-(2-((1h-indol-3-yl)methylene)hydrazinyl)-6-morpholino-n-(4-(trifluoromethyl)phenyl)-1,3,5-triazin-2-amine]	≤ 1
Cc1ccc(Nc2nc(N/N=C/c3c[nH]c4ccccc34)nc(N(CCO)CCO)n2)cc1 [Example 14, 2-((2-Hydroxy-ethyl)-{4-[N′-(1H-indol-3-ylmethylene)-hydrazino]-6-p-tolylamino-[1,3,5]triazin-2-yl}-amino)-ethanol]	> 50
Clc1ccccc1Nc1nc(N/N=C/c2c[nH]c3ccccc23)nc(N2CCOCC2)n1 [Example 42, (2-Chloro-phenyl)-{4-[N′-(1H-indol-3-ylmethylene)-hydrazino]-6-morpholin-4-yl-[1,3,5]triazin-2-yl}-amine]	≤ 1
Cc1ccc(Nc2nc(NCCc3c[nH]c4ccccc34)nc(N3CCOCC3)n2)cc1 [Example 54, N2-(2-(1H-indol-3-yl)ethyl)-6-morpholino-N4-(p-tolyl)-1,3,5-triazine-2,4-diamine]	> 50
CCN(C)c1nc(N/N=C/c2c[nH]c3ccccc23)nc(Nc2ccc(C)cc2)n1 [Example 35, (E)-6-(2-((1H-Indol-3-yl)methylene)hydrazinyl)-N2-ethyl-N2-methyl-N4-(p-tolyl)-1,3,5-triazine-2,4-diamine]	> 50

Compound	EC50 [µM]
Nc1ccc(Nc2nc(N/N=C/c3c[nH]c4ccccc34)nc(N3CCOCC3)n2)cc1 [Example 27, N1-(4-(2-((1h-indol-3-yl)methylene)hydrazinyl)-6-morpholino-1,3,5-triazin-2-yl)benzene-1,4-diamine]	≤ 1
Fc1ccc(Nc2nc(N/N=C/c3c[nH]c4ccccc34)nc(N3CCOCC3)n2)cc1 [Example 10, (4-Fluoro-phenyl)-{4-[N′-(1H-indol-3-ylmethylene)-hydrazino]-6-morpholin-4-yl-[1,3,5]triazin-2-yl}-amine]	≤ 1
COCCN(CCOC)c1nc(N/N=C/c2c[nH]c3ccccc23)nc(Nc2ccc(C)cc2)n1 [Example 29, (E)-6-(2-((1H-Indol-3-yl)methylene)hydrazinyl)-N2,N2-bis(2-methoxyethyl)-N4-(p-tolyl)-1,3,5-triazine-2,4-diamine]	> 50
Cc1ccc(Nc2nc(N/N=C/c3cc4ccccc4[nH]3)nc(N3CCOCC3)n2)cc1 [Example 44, {4-[N′-(1H-Indol-2-ylmethylene)-hydrazino]-6-morpholin-4-yl-[1,3,5]triazin-2-yl}-p-tolyl-amine]	1 to 10
Cc1ccc(Nc2nc(N/N=C/c3c[nH]c4ccccc34)nc(N3CCOCC3C)n2)cc1 (stereo not shown) [Example 50, (E)-4-(2-((1H-Indol-3-yl)methylene)hydrazinyl)-6-(3-methylmorpholino)-N-(p-tolyl)-1,3,5-triazin-2-amine]	≤ 1
COc1ccc(Nc2nc(N/N=C/c3c[nH]c4ccccc34)nc(N3CCOCC3)n2)cc1 [Example 12, {4-[N′-(1H-Indol-3-ylmethylene)-hydrazino]-6-morpholin-4-yl-[1,3,5]triazin-2-yl}-(4-methoxy-phenyl)-amine]	≤ 1
Cc1ccc(Nc2nc(N/N=C\c3cccnc3)nc(N3CCOCC3)n2)cc1 [Example 23, [4-Morpholin-4-yl-6-(N′-pyridin-3-ylmethylene-hydrazino)-[1,3,5]triazin-2-yl]-p-tolyl-amine]	1 to 10
Cc1ccc(Nc2nc(N/N=C/c3c[nH]c4ccccc34)nc(N3CCN(C)CC3)n2)cc1 [Example 17, [4-[N′-(1H-Indol-3-ylmethylene)-hydrazino]-6-(4-methyl-piperazin-1-yl)-[1,3,5]triazin-2-yl]-p-tolyl-amine]	> 50
Brc1ccc(Nc2nc(N/N=C/c3c[nH]c4ccccc34)nc(N3CCOCC3)n2)cc1 [Example 21, (E)-4-(2-((1h-indol-3-yl)methylene)hydrazinyl)-n-(4-bromophenyl)-6-morpholino-1,3,5-triazin-2-amine]	≤ 1
Cc1ccc(Nc2nc(NCCO)nc(N/N=C/c3c[nH]c4ccccc34)n2)cc1 [Example 13, 2-{4-[N′-(1H-Indol-3-ylmethylene)-hydrazino]-6-p-tolylamino-[1,3,5]triazin-2-ylamino}-ethanol]	> 50
Cc1ccc(Nc2nc(N/N=C/c3c[nH]c4ccccc34)nc(N3CCNCC3)n2)cc1 [Example 18, {4-[N′-(1H-Indol-3-ylmethylene)-hydrazino]-6-piperazin-1-yl-[1,3,5]triazin-2-yl}-p-tolyl-amine]	> 50
Cc1cccc(Nc2nc(N/N=C/c3c[nH]c4ccccc34)nc(N3CCOCC3)n2)c1 [Example 9, {4-[N′-(1H-Indol-3-ylmethylene)-hydrazino]-6-morpholin-4-yl-[1,3,5]triazin-2-yl}-m-tolyl-amine]	≤ 1
Cc1ccc(Nc2nc(N/N=C/c3c[nH]c4ccccc34)nc(N3CCOc4ccccc43)n2)cc1 [Example 48, (E)-4-(2-((1H-Indol-3-yl)methylene)hydrazinyl)-6-(2H-benzo[b][1,4]oxazin-4(3H)-yl)-N-(p-tolyl)-1,3,5-triazin-2-amine]	> 50
Cc1ccc(Nc2nc(N/N=C\c3cc[nH]c3)nc(N3CCOCC3)n2)cc1 [Example 24, {4-Morpholin-4-yl-6-[N′-(1H-pyrrol-3-ylmethylene)-hydrazino]-[1,3,5]triazin-2-yl}-p-tolyl-amine]	10 to 50
Cc1ccc(Nc2cc(-n3ncc4c5ccccc5[nH]c43)nc(N3CCOCC3)n2)cc1 [Example 40, [2-morpholin-4-yl-6-(8H-pyrazolo[3,4-b]indol-1-yl)-pyrimidin-4-yl]-p-tolyl-amine]	10 to 50
Cc1ccc(Nc2nc(N/N=C/c3c[nH]c4ccccc34)nc(N3CCC(O)CC3)n2)cc1 [Example 37, (E)-1-(4-(2-((1H-Indol-3-yl)methylene)hydrazinyl)-6-(p-tolylamino)-1,3,5-triazin-2-yl)piperidin-4-ol]	> 50
Cc1ccc(Nc2nc(N/N=C/c3c[nH]c4ccccc34)nc(N(C)C)n2)cc1 [Example 30, (E)-6-(2-((1H-Indol-3-yl)methylene)hydrazinyl)-N2,N2-dimethyl-N4-(p-tolyl)-1,3,5-triazine-2,4-diamine]	> 50
